We go through 19 molecules from paper PMC9520911, “New quinoline-based triazole hybrid analogs as effective inhibitors of α-amylase and α-glucosidase: Preparation, in vitro evaluation, and molecular docking along with in silico studies” (Frontiers in Chemistry, 2022).

SMILES strings stand for the structures.

In series [1] the target is T1, Porcine pancreatic α-amylase (Sus scrofa, UniProt P00690).
T1 sequence (P00690 16-511): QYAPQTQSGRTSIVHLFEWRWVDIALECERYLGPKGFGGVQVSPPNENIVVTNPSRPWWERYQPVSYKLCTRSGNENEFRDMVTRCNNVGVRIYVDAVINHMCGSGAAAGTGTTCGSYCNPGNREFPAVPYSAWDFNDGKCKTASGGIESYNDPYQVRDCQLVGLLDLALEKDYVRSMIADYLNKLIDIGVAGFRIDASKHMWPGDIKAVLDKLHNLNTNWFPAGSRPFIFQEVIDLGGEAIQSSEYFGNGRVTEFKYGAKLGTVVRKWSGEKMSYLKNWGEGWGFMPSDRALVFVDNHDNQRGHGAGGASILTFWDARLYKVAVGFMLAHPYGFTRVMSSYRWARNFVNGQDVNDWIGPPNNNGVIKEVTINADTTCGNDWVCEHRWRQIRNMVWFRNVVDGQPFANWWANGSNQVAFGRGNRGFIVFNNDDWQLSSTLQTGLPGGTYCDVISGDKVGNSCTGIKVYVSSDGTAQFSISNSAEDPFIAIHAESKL
Nature of the series: α-amylase inhibition assay (starch / dinitrosalicylic acid). The series is classed as biochemical. Conditions: for IC50: in vitro, mean ± SEM. Here is the method: After preincubation, 40 μL of a 1% starch solution in 0.02 M sodium phosphate buffer (pH 6.9 with 0.006 M sodium chloride) was added to each tube at 5 s intervals. […] The reaction was stopped with 100 μL of dinitro salicylic acid color reagent. The test tubes were then incubated in a boiling water bath for 5 min and cooled to room temperature. The reaction mixture was then diluted after adding 900 μL distilled water and the absorbance was measured at 540 nm.
Ac = the absorbance of the control
As = the absorbance of the sample

A word on the IC50: it is the concentration that inhibits the measured activity by half. By melting point is commonly meant the temperature of the solid-liquid transition. As for `S=c1[nH]nc(-c2ccc3cccnc3c2)n1-c1ccccc1` [1d, 4-Phenyl-5-(quinolin-7-yl)-2,4-dihydro-3H-1,2,4-triazole-3-thione], the melting point was 137 to 138 °C (dec.). In series [1], this molecule registered an IC50 of 40.2 ± 0.7 µM.

`Cc1ccccc1-n1c(-c2ccc3cccnc3c2)n[nH]c1=S` [2d, 5-(Quinolin-7-yl)-4-(o-tolyl)-2,4-dihydro-3H-1,2,4-triazole-3-thione] displayed a melting point of 139 to 140 °C. In addition, in series [1], half-maximal inhibition (IC50) was put at 22.6 ± 0.6 µM.

Turning to `Cc1cccc(-n2c(-c3ccc4cccnc4c3)n[nH]c2=S)c1` [3d, 5-(Quinolin-7-yl)-4-(m-tolyl)-2,4-dihydro-3H-1,2,4-triazole-3-thione], the melting point lay within 136 to 137 °C. Also, inhibition in series [1] was half-maximal at 32.3 ± 0.6 µM (IC50).

Consider `Cc1ccc(-n2c(-c3ccc4cccnc4c3)n[nH]c2=S)cc1` [4d, 5-(Quinolin-7-yl)-4-(p-tolyl)-2,4-dihydro-3H-1,2,4-triazole-3-thione], for which the melting point fell in the range of 127 to 128 °C. In series [1], the IC50 came to 21.6 ± 0.4 µM.

With `O=[N+]([O-])c1ccccc1-n1c(-c2ccc3cccnc3c2)n[nH]c1=S` [5d, 4-(2-Nitrophenyl)-5-(quinolin-7-yl)-2,4-dihydro-3H-1,2,4-triazole-3-thione], the melting point was 139 to 140 °C. In series [1], this molecule displayed an IC50 of 5.3 ± 0.2 µM.

As to `O=[N+]([O-])c1cccc(-n2c(-c3ccc4cccnc4c3)n[nH]c2=S)c1` [6d, 4-(3-Nitrophenyl)-5-(quinolin-7-yl)-2,4-dihydro-3H-1,2,4-triazole-3-thione], the melting point lay within 130 to 131 °C. For the same molecule, the IC50 in series [1] worked out at 21.4 ± 0.3 µM.

For the molecule `O=[N+]([O-])c1ccc(-n2c(-c3ccc4cccnc4c3)n[nH]c2=S)cc1` [7d, 4-(4-Nitrophenyl)-5-(quinolin-7-yl)-2,4-dihydro-3H-1,2,4-triazole-3-thione], the melting point is 127 to 128 °C. Besides, the IC50 in series [1] is 11.6 ± 0.2 µM.

`COc1ccc(-n2c(-c3ccc4cccnc4c3)n[nH]c2=S)cc1` [8d, 4-(4-Methoxyphenyl)-5-(quinolin-7-yl)-2,4-dihydro-3H-1,2,4-triazole-3-thione]: the melting point was 134 to 135 °C.

`Fc1ccccc1-n1c(-c2ccc3cccnc3c2)n[nH]c1=S` [9d, 4-(2-Fluorophenyl)-5-(quinolin-7-yl)-2,4-dihydro-3H-1,2,4-triazole-3-thione] came in with a melting point of 129 to 130 °C. For the same molecule, the midpoint of inhibition in series [1], the IC50, lay at 1.5 ± 0.1 µM.

`Fc1cccc(-n2c(-c3ccc4cccnc4c3)n[nH]c2=S)c1` [10d, 4-(3-Fluorophenyl)-5-(quinolin-7-yl)-2,4-dihydro-3H-1,2,4-triazole-3-thione] returned a melting point of 128 to 129 °C. Also, the midpoint of inhibition in series [1], the IC50, lay at 2.1 ± 0.1 µM.

In turn, `Fc1ccc(-n2c(-c3ccc4cccnc4c3)n[nH]c2=S)cc1` [11d, 4-(4-Fluorophenyl)-5-(quinolin-7-yl)-2,4-dihydro-3H-1,2,4-triazole-3-thione] gave a melting point of 131 to 132 °C. This molecule returned an IC50 in series [1] of 0.8 ± 0.05 µM. In addition, the “enhanced potency than standard acarbose drug (α-amylase)” value in series [1] (relative to acarbose) is recorded as “ten-fold”.

`S=c1[nH]nc(-c2ccc3cccnc3c2)n1-c1ccccc1Cl` [12d, 4-(2-Chlorophenyl)-5-(quinolin-7-yl)-2,4-dihydro-3H-1,2,4-triazole-3-thione] showed a melting point of 136 to 137 °C. Also, the midpoint of inhibition in series [1], the IC50, lay at 4.3 ± 0.1 µM.

Consider `S=c1[nH]nc(-c2ccc3cccnc3c2)n1-c1cccc(Cl)c1` [13d, 4-(3-Chlorophenyl)-5-(quinolin-7-yl)-2,4-dihydro-3H-1,2,4-triazole-3-thione], for which the melting point is 141 to 142 °C. In series [1], this molecule returned an IC50 of 14.6 ± 0.3 µM.

For `S=c1[nH]nc(-c2ccc3cccnc3c2)n1-c1ccc(Cl)cc1` [14d, 4-(4-Chlorophenyl)-5-(quinolin-7-yl)-2,4-dihydro-3H-1,2,4-triazole-3-thione], the melting point is 131 to 132 °C. In series [1], this molecule showed an IC50 of 6.4 ± 0.3 µM. In series [1] (relative to 7d), the “more potency than scaffold 7d (α-amylase)” value is on record as 2 folds.

`S=c1[nH]nc(-c2ccc3cccnc3c2)n1-c1ccccc1Br` [15d, 4-(2-Bromophenyl)-5-(quinolin-7-yl)-2,4-dihydro-3H-1,2,4-triazole-3-thione]: the melting point lay within 135 to 136 °C. For the same molecule, the IC50 in series [1] stood at 17.2 ± 0.3 µM.

Take `S=c1[nH]nc(-c2ccc3cccnc3c2)n1-c1cccc(Br)c1` [16d, 4-(3-Bromophenyl)-5-(quinolin-7-yl)-2,4-dihydro-3H-1,2,4-triazole-3-thione]: the melting point is 130 to 131 °C. This molecule also showed an IC50 in series [1] of 31.8 ± 0.6 µM.

`S=c1[nH]nc(-c2ccc3cccnc3c2)n1-c1ccc(Br)cc1` [17d, 4-(4-Bromophenyl)-5-(quinolin-7-yl)-2,4-dihydro-3H-1,2,4-triazole-3-thione] displayed a melting point of 132 to 133 °C. In addition, the IC50 in series [1] was determined as 19.2 ± 0.3 µM.

The molecule `S=c1[nH]nc(-c2ccc3cccnc3c2)n1-c1ccc(Cl)c(Cl)c1` [18d, 4-(3,4-Dichlorophenyl)-5-(quinolin-7-yl)-2,4-dihydro-3H-1,2,4-triazole-3-thione] returned a melting point of 133 to 134 °C. This molecule gave an IC50 in series [1] of 1.8 ± 0.1 µM.

In series [1], `S=c1[nH]nc(-c2ccc3cccnc3c2)n1-c1ccc(-c2ccccc2)cc1` [19d] displayed an IC50 of 18.5 ± 0.3 µM.
